# Assay results from patent US6384007B1, “Method and composition for enhancing the activity of an enzyme” (Unilever Home & Personal USA division of Conopco, Inc., priority 1999, dated 2002).
# Experiments:
# [1] = Bleaching of tomato stains on cotton swatches (Example 1); conditions: detergent wash solution 2 g/l, 1 hour at 30° C
# Method: The potential of the enhancer, Ethanedioic acid, 2-[(4-aminophenyl)sulfonyl)hydrazide-2-phenylhydrazide, to boost the bleach performance of phenol oxidizing enzyme was assessed by washing cotton swatches soiled with tomato stains
# Purified phenol oxidizing enzyme from Acremonium murorum was added to the wash solution at 100 mg/l. The enzyme from Acremonium murorum is described in WO-A-00/05349 (Unilever). The enhancer was dosed at 250 μM. The following formulation was used as wash solution (2 g/l): […]
# The swatches were washed during 1 hour at 30° C. After the wash, the swatches were tumble-dried and the reflectance spectra were measured using a Minolta spectrometer. The color differences between the swatch before and after the wash data were expressed in the CIELAB L*a*b* color space. In this color space, L* indicates lightness and a* and b* are the chromaticity coordinates. Color differences between two swatches are expressed as ΔE, which is calculated from the following equation:
# ΔE={square root over (ΔL^2+Δa^2+Δb^2+L )}
# Table 1: Stain bleach performance of the phenol oxidizing enzyme/enhancer system on tomato stains in the presence of different enhancers.
# [2] = Bleaching of tomato stains on cotton swatches (Example 2); conditions: enhancer 250 μM + enzyme 20 mg/l; detergent formulation pH 9; 30 minutes at 30 C
# Method: Stain bleach experiments were performed as in Example 1, except that 20 mg/l enzymes was used. The detergent formulation was set at pH 9, and the swatches washed during 30 minutes at 30 C.
# Table 2: Stain bleach performance of the phenol oxidizing enzyme/enhancer system on tomato stains in the presence of the enzymatic bleach system.
structure (smiles),measurement,setting,value
"Nc1ccc(S(=O)(=O)NNC(=O)C(=O)NNc2ccccc2)cc1 [enhancer, Ethanedioic acid, 2-[(4-aminophenyl)sulfonyl)hydrazide-2-phenylhydrazide]","ΔE (CIELAB colour difference of swatch before and after wash), wash with enzyme and enhancer added",[1]; enhancer 250 μM + phenol oxidizing enzyme from Acremonium murorum 100 mg/l,ΔE = 11.9
same,"ΔE (CIELAB colour difference of swatch before and after wash), wash with enhancer only","[1]; enhancer 250 μM, no enzyme",ΔE = 9.1
same,"ΔE (CIELAB colour difference of swatch before and after wash), wash with enzyme and enhancer added",[2],ΔE = 10.6
